Tests used:
purified amyloid = purified amyloid (Pseudomonas aeruginosa, UniProt Q9I2F0); test: Surface plasma resonance assay with purified amyloid immobilized on chips; format: binding
Protocol: In a biofilm screening, two different types of biofilms (biofilm versus amyloid deficient biofilm) were treated with compounds and hits were identified by selective staining of biofilms containing amyloid structures. Thus, the binding affinity of four compounds with the purified amyloid subunit (fibril) protein was validated by surface plasma resonance assay. The subunit protein was immobilized on chips and each of compounds was flowed continuously. Thioflavin T, BDN1 B2 and BDNAC3 E6 were tested with hit compounds. […] (A) TEM images of purified amyloid proteins. Scale bar=400 nm. (B) Surface plasma resonance assay of four amyloid targeting compounds with purified amyloid.
Amyloids were prepared in HEPES buffer (0.01 M HEPES, pH 7.4, 0.15 M NaCl, 3 mM EDTA and 0.005% P20). Amyloid fibers were fragmented with sonication at 80 Hz for 10 s and centrifuged at 14 000 g for 30 s to remove any large fibers. Concentrate (40 μL) was mixed with 10 mM sodium acetate (120 μL), pH 5.5 right before immobilization.
SPR experiments were performed at 25° C. using Biacore T-200 biosensor with research grade CM5-S sensor chips (Biacore, GE Healthcare). Carboxymethylated CM5-S chips were activated using 70 μL of 0.2 M 1-ethyl-3-[3-(dimethylamino)propyl] carbodiimide hydrochloride (EDC) and 0.05 M N-hydroxysuccinimide (NHS) in a 1:1 ratio. Amyloid in sodium acetate solution (100 μL) was injected over the activated surface until an immobilization level of 7700 response units (RU) was reached. Ethanolamine hydrochloride (1.0 M), pH 8.5 was injected across the surface for 5 min to block any residual activated-unreacted carboxyl groups. Compounds were dissolved into HEPES buffer containing final concentration of 5% DMSO and serially diluted to 340 nM, 1.03, 3.09, 9.26, 27.78, 83.33 μM. Tht+ was prepared similarly as positive control. Replicates of the diluted compounds were injected across a unmodified flow cell and amyloid-immobilized flow cell in a serial manner for association phase of 60 s followed by dissociation phase of 5 min. […] The chip surface was rinsed using HEPES buffer. All sensorgrams were double-referenced with responses from unmodified channel and blank HEPES buffer injections. Equilibrium responses from the compounds were plotted against logarithmic of their corresponding concentrations where the binding affinities were calculated from 50% saturation.
First batch of screening was done under varying amyloid expression conditions for specifically isolating amyloid targeting compounds and four compounds were isolated from cell based screening. […] Finally, four compounds were examined by surface plasma resonance assay whether those have binding specificity with putative target, namely amyloid. Four hit compounds were examined with thioflavin T and two negative controls on chips after immobilizing purified amyloid.

P. aeruginosa (PAO1-GFP) = test: Eye infection model, imaging of infected cornea under TRITC channel; format: in vivo; conditions: mouse cornea infected with PAO1-GFP for 2 days, 10 minutes incubation with compound
Protocol: (A) Propagation of Pseudomonas aeruginosa (PAO1-GFP) after infecting into mouse eyes. GFP signals were detected after 12 hours later after infecting bacteria and signals were fully saturated after 24 hours later; Scale bar=2 mm. (B) Tests of amyloid targeting compounds in eye infection models. The model was generated by inoculation of a GFP tagged P. aeruginosa PAO1 strain into the eye after making scratches in cornea. Images were taken in bright field and TRITC from ketamine/xylazine anesthetized mice and compounds signals were examined under TRITC channel after incubation with compounds for 10 minutes at room temperature. Scale bar=2 mm.
P. aeruginosa (PAO1-GFP) was grown at 37° C. in ABTGC media for 16 h. 500 μL of cultured PAO1-GFP was transferred to 1.5 mL Eppendorf tube and centrifuged at 14 000 g for 3 min. Supernatant was removed and pellet was washed with PBS buffer 3 times. Finally, pellet was resuspended in 250 μL of PBS buffer.
Mice were anesthetized ketamine/xylazine by peritoneal injection before scratches were made in cornea with blade. PAO1-GFP (1 μL, 2×107˜10^8 CFU) dissolved in PBS buffer was treated in left eye and PBS buffer was treated in right eye. P. aeruginosa inoculated mice were incubated for 2 days before in vivo experiments. Animal handling was in accordance with the Institutional Aminal Care and Use Committee of Singapore Bioimaging Consortium (Agency of Science, Technology and Research, Singapore).
Biofilm is stained by amyloid targeting compounds through interacting with FAP proteins which is one of the components for intact biofilm. Thus, amyloid targeting compounds were tested in eye infection model which is one of the naturally reported symptoms of P. aeruginosa containing biofilms. Eye infection model was generated in black mouse. […] GFP signals were detected after 12 hours incubation with P. aeruginosa-GFP bacteria.
Fluorescence signals under TRITC channel were checked to confirm infection on cornea and amyloid compounds were tested under TRITC channel after incubation for 10 minutes. […]

[1] = tested on: P. aeruginosa biofilm (PAO1-GFP); test: Mouse implant model, silicone tubes coated with PAO1-GFP biofilm; format: in vivo, BALB/c mice; conditions: 100 μM (200 μL) injected via the peritoneal cavity, 2 h before recovering implants; listed as CDy11
Source text: (§1) CLSM images of a GFP tagged P. aeruginosa PAO1 strain colonizing silicone implants after removal from BALB/c mice at day 1 post insertion. Green fluorescent areas represent P. aeruginosa. Insertion of silicone tube into mice which was precoated with (A) PAO1Δfap-GFP and (B) PAO1-GFP biofilms. Images of the microcolonies adhering to the silicone implants with CDy11. Only PAO1-GFP biofilms coated silicone tube was stained by CDy11; Scale bars=10 μm.
(§2) One bacterial colony (PAO1-GFP) was picked up from the plate to inoculate an overnight culture in LB (Luria Broth) media in 37° C. incubator with 110 rpm/min for 20 h. Silicone tubes (Ole Dich) were cut with a thickness of 4 mm and were sterilized in 0.5% NaClO for overnight. Next day, 25 mL of overnight cultured media was transferred to 50 mL conical tube and pellet was collected by centrifuging at 3000 rpm for 10 min. Subsequently, pellet was suspended with 2 mL of LB media before optical density was observed under 600 nm wavelength.
(§3) Sterilized silicone was washed twice in 0.9% NaCl solution. Silicone tubes (8 pieces) in 50 mL flask were incubated with 10 mL of diluted bacteria (OD600=0.1) in 0.9% NaCl solution in rotationary shaker at 37° C. with 110 rpm/min for 20 h. […]
(§4) All silicone tubes were collected after 2 h incubation to observe CDy11 fluorescence of the inner surface of the silicone tube by means of laser confocal scanning microscopy. […]

Immune cells = test: Mouse implant model, silicone tubes without P. aeruginosa precoating; format: in vivo, BALB/c mice; conditions: same amount injected via the peritoneal cavity; data not shown
Protocol: After anesthesia of mice with ketamine/xylazine mix by intraperitoneal injection, the mouse was placed ventral side up on plate. Fur was clipped and the skin was swabbed with 70% ethanol. An incision of approximately 0.5-1 cm was made in the left groin area. Then an implant prepared the day before was inserted into peritoneal cavity via the incision. The incision was closed with a suture and healed on a warm pad at 26-28° C.
The inventors also applied a mouse implant model to test the capacity of CDy11 (BDNAC3 D8) to detect P. aeruginosa biofilms in a surgical format. Silicone tubes were precolonized by bacteria and subsequently inserted into the peritoneal cavity 1 day before the experiment. BALB/c mice were assigned to each of the two groups and 100 μM CDy11 (200 μL) was injected into the mice via the peritoneal cavity 2 h before recovering the implants. As a mock control, a similar volume of buffer was injected into the second set of mice. In addition, CDy11 was injected into a set of mice which had been installed with uncolonized silicone tubes in the peritoneal cavity.
All silicone tubes were collected after 2 h incubation to observe CDy11 fluorescence of the inner surface of the silicone tube by means of laser confocal scanning microscopy. […] The silicone tubes without P. aeruginosa precoating were also examined by injection of same amount of CDy11. […]

[2] = tested on: PAO1Δfap-GFP strain biofilm; test: Mouse implant model, silicone tubes coated with PAO1Δfap-GFP biofilm; format: in vivo, BALB/c mice; conditions: 100 μM (200 μL) injected via the peritoneal cavity, 2 h before recovering implants
Source text: as §1, §2, §3, §4

Sequence of purified amyloid (Q9I2F0 25-340): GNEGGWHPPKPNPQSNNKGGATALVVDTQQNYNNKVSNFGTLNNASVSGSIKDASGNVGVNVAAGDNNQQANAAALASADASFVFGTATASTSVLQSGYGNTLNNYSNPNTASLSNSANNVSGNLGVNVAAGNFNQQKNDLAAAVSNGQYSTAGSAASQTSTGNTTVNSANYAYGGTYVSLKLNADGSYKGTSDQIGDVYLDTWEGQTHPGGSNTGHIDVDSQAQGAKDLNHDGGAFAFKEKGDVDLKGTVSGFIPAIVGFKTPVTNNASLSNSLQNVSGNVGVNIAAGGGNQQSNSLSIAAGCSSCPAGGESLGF

| Structure (SMILES) | Kd (purified amyloid) | visualization of infected eyes (P. aeruginosa (PAO1-GFP)) | staining of PAO1-GFP biofilm coated silicone tube [1] | staining of immune cells in silicone tubes without P. aeruginosa precoating (Immune cells) | staining of PAO1Δfap-GFP biofilm coated silicone tube [2] |
| --- | --- | --- | --- | --- | --- |
| Cc1ccc2c(c1)sc(-c1ccc(N(C)C)cc1)[n+]2C [thioflavin T, reference compound] | 85 ± 7 µM |  |  |  |  |
| COc1cc(/C=C/c2cc(C)c3n2[B-](F)(F)[N+]2=CC=CC2=C3c2ccc(N)cc2)c(Br)c(Br)c1O [BDN3 F3] | 16 ± 1 µM |  |  |  |  |
| Cc1cc(/C=C/c2ccc(-c3ccc([N+](=O)[O-])cc3)o2)n2c1C(c1ccc(N)cc1)=C1C=CC=[N+]1[B-]2(F)F [BDN3 G7] | 28 ± 5 µM | visualized |  |  |  |
| COc1ccc(/C=C/c2cc(C)c3n2[B-](F)(F)[N+]2=CC=CC2=C3c2ccc(NC(C)=O)cc2)c(F)c1 [BDNAC3 D8] | 29 ± 2 µM | visualized | specifically stained | not stained | not stained |
| COc1cc(Cl)cc(/C=C/c2cc(C)c3n2[B-](F)(F)[N+]2=CC=CC2=C3c2ccc(N)cc2)c1OC [BDN2 H2] | 61 ± 3 µM | visualized |  |  |  |
